Data as given in article PMC7221760, “Structural and Functional Characterization of NadR from Lactococcus lactis” (Molecules, 2020).

How the values were obtained:
NadRLl [1] = biological target: T1, NadRLl (Lactococcus lactis, UniProt Q9CE60); assay: LDH-coupled NADH absorbance at […] nm (NR to NAD); format: biochemical; settings: substrate inhibition; 10 mM Mg-ATP; 100 mM Tris/HCl pH 7.5; 25 °C
T1 construct: gene nadR; NMNAT domain residues 8-177, RNK domain residues 178-379
T1 sequence (Q9CE60 1-379): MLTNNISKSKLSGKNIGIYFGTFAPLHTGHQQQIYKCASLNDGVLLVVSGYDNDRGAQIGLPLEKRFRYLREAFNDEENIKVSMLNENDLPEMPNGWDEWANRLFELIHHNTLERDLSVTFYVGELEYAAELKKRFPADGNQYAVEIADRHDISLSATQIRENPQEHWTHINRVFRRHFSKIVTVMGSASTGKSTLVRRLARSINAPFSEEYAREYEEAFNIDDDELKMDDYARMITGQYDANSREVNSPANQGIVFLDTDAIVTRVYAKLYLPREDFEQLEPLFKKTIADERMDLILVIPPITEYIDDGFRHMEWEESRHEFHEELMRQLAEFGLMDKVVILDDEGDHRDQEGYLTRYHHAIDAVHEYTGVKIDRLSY

NadRLl [2] = biological target: T1, NadRLl; assay: X-ray crystal structure, […] Å; format: binding; settings: 5 mM NR, pH 6.5; site between the two domains, not the active sites
NadRLl [3] = biological target: T1, NadRLl; assay: X-ray crystal structure, […] Å; format: binding; settings: co-crystallised with 5 mM NAD and 5 mM Mg-AMP-PNP, not the active sites
NadRLl [4] = biological target: T1, NadRLl; assay: X-ray crystal structure, […] Å; format: binding; settings: 5 mM NMN, pH 6.5; site between the two domains, not the active sites
NadRLl [5] = biological target: T1, NadRLl; assay: LDH-coupled NADH absorbance at […] nm (NMN to NAD); format: biochemical; settings: substrate inhibition; 10 mM Mg-ATP; 100 mM Tris/HCl pH 7.5; 25 °C
NadRLl [6] = biological target: T1, NadRLl; assay: isothermal titration calorimetry; format: binding; settings: read-out: Dissociation Constant-KD
From the text: isothermal titration calorimetry on NadRLl

purified protein [7] = substrate: NC(=O)c1ccc[n+]([C@@H]2O[C@H](CO)[C@@H](O)[C@H]2O)c1; assay: purified protein; format: biochemical, Lactococcus lactis; settings: 10 mM Mg-ATP, 100 mM Tris/HCl pH 7.5, 25 °C, substrate-inhibition model
purified protein [8] = substrate: NC(=O)c1ccc[n+]([C@@H]2O[C@H](COP(=O)([O-])O)[C@@H](O)[C@H]2O)c1; assay: purified protein; format: biochemical, Lactococcus lactis; settings: 10 mM Mg-ATP, 100 mM Tris/HCl pH 7.5, 25 °C, substrate-inhibition model
purified protein [9] = substrate: Nc1ncnc2c1ncn2[C@@H]1O[C@H](COP(=O)(O)OP(=O)(O)OP(=O)(O)O)[C@@H](O)[C@H]1O; assay: purified protein; format: biochemical, Lactococcus lactis; settings: 1 mM NMN, 100 mM Tris/HCl pH 7.5, 25 °C, Mg-ATP, Hill coefficient 2.2 ± 0.3

## NC(=O)c1ccc[n+]([C@@H]2O[C@H](CO)[C@@H](O)[C@H]2O)c1 [nicotinamide riboside]
NadRLl [1]
  Ki: 31400 ± 8100 µM
NadRLl [2]
  X-ray crystal structure, 2.30 Å: we obtained structures in the presence of NMN and NR, which both have bound substrates

## NC(=O)c1ccc[n+]([C@@H]2O[C@H](COP(=O)(O)OP(=O)(O)OC[C@H]3O[C@@H](n4cnc5c(N)ncnc54)[C@H](O)[C@@H]3O)[C@@H](O)[C@H]2O)c1 [NAD]
NadRLl [3]; mixture with AMP-PNP at site between the two domains
  X-ray crystal structure, 3.00 Å: we observed a mixture of NAD and AMP-PNP bound at this location

## NC(=O)c1ccc[n+]([C@@H]2O[C@H](COP(=O)([O-])O)[C@@H](O)[C@H]2O)c1 [nicotinamide mononucleotide]
NadRLl [4]
  X-ray crystal structure, 2.70 Å: we obtained structures in the presence of NMN and NR, which both have bound substrates
NadRLl [5]
  Ki: 25400 ± 10800 µM

## Nc1ncnc2c1ncn2[C@@H]1O[C@H](COP(=O)(O)OP(=O)(O)OP(=O)(O)O)[C@@H](O)[C@H]1O [ATP]
NadRLl [6]
  Kd: 63 ± 1 µM

## Nc1ncnc2c1ncn2[C@@H]1O[C@H](COP(=O)(O)OP(=O)(O)NP(=O)(O)O)[C@@H](O)[C@H]1O [AMP-PNP]
NadRLl [6]
  Kd: 13 ± 1 µM
NadRLl [3]; mixture with NAD at site between the two domains
  X-ray crystal structure, 3.00 Å: we observed a mixture of NAD and AMP-PNP bound at this location

B1: NadRLl (Lactococcus lactis subsp. lactis Il1403) (protein)
chain: T1 sequence (Q9CE60 1-379)
notes: NMNAT domain residues 8-177, RNK domain residues 178-379
Purified protein [7]
  Km: 600 ± 100 µM
  Vmax: 0.4 µmol/min/mg
Purified protein [8]
  Km: 500 ± 100 µM
  Vmax: 1.5 µmol/min/mg
Purified protein [9]
  K0.5: 5.2 ± 0.6 mM
  Vmax: 1.2 µmol/min/mg
